According to patent US10570099B2, “Salts of an epidermal growth factor receptor kinase inhibitor” (Celgene CAR LLC, priority 2012, dated 2020):

Columns and labels:
[1] = Slurry in pH 6.2 aqueous medium (conversion to unknown solid form); format: physicochemical; conditions: slurry as for the hydrobromide at pH 6.2, XRPD
Description: In attempts to characterize this form, as well as establish the rate of conversion to this form while slurrying the material, the following experiments were carried out. Initially, approximately 100 mg of the hydrobromide (1 equiv.) material was slurried in a pH 6.2 aqueous solution at ambient and XRPD analysis was carried out at time points 5 min., 1 hr, 2 hrs, 4 hrs and 8 hrs. Further analysis was then also carried out on the converted material.

[2] = system: human non-small cell lung cancer cell; conditions: cited from earlier work
mutant EGFR kinase = conditions: enzymatic and cellular assays; cited from earlier work
[3] = system: human non-small cell lung cancer cell; conditions: cited from earlier work; remark: listed apart in the source
[4] = Intrinsic dissolution of compressed discs; format: physicochemical
Description: A Sotax AT7 dissolution bath (USP 2, EP 2 apparatus) was used for the dissolution study in which paddles were used to stir the media. All tests were carried out at 37° C. and a paddle speed of 100 rpm.
(§1) Approximately 100-120 mg of each form was compressed into discs by placing the material into a die (diameter: 13 mm) and compressing the die under 5 tons of pressure in a hydraulic press for ca. 2 minutes. A Sotax AT7 (conformed to EP2 and USP2) dissolution instrument was used containing paddles to stir the media at 100 rpm. Dissolution media of pH 3 (1% SDS) and pH 4.5 (1% SDS) were prepared using citrate/phosphate buffer. All materials were tested in 750 ml of the buffer medium. Discs were added at time=0 seconds and allowed to sink to the bottom of the dissolution vessel before stirring began. ca. 1 ml aliquots of media were extracted from the dissolution vessels at times 1, 5, 10, 15, 30, 60, 120, 240 minutes and 24 hours, and tested for dissolved salt concentration by HPLC-UV. The dissolution tests were carried out in duplicate. For both dissolution media, the peak areas for the initial time points (up to 15 minutes), fell below the limit of quantification, however, when plotting Dissolution rate vs. time, the steepest part of the curve occurs during these early time points.
as §1, with “material” for “each form”, “API” for “dissolved salt”

[5] = Hydration study (slurry in solvent:water mixtures, XRPD); format: physicochemical; conditions: ambient, ca. 3-4 days
Description: The resulting solids were then analyzed by XRPD to determine if any changes had occurred on slurrying.
Slurries of the hydrobromide salt were created in acetone:water mixtures (3%, 5% and 10%) and stirred at ambient for ca. 3 days. The resulting solids were then analysed by XRPD to determine if any changes had occurred on slurrying.
Slurries were created using ca. 200 mg of Form I salt material in 2 mL of the appropriate solvent system. These were stirred at ca. 55° C. for 6 hours.
Slurries were created using ca. 200 mg of Form I salt material in 2 mL of the appropriate solvent system.

[6] = Salt disproportionation study (slurry in deionized water); format: physicochemical; conditions: for pH of the supernatant: deionized water slurry; for Disproportionation study, result of slurrying (XRPD): deionized water, ambient
Description: The pH of the supernatant was also monitored.
The hydrobromide salt was slurried in deionised water at ambient temperature (ca. 22° C.). […] The pH of the supernatant was also monitored.

[7] = 1 week stability of primary screen salts at 40° C./75% RH and 80° C. (open vials, XRPD); format: physicochemical; conditions: listed as Besylate (2 equiv.) Form I
Description: (open vials). TGA was carried out after the stability studies for samples containing sufficient material.

[8] = Thermodynamic solubility in media of various pH (HPLC; XRPD of excess solids); conditions: for Thermodynamic Solubility: ca. 24 hours
Description: The remaining solids were also analysed by XRPD analysis to establish if any changes in the solid form occurred.
The remaining solids were also analysed by XRPD analysis to establish if any changes in the solid form occurred. For the buffer solutions, KCl/HCl was used for pH 1 and citrate/phosphate combinations for pH 3, 4.5 and 6.6.
The remaining solids were also analysed by XRPD analysis to establish if any changes in the solid form occurred. For the buffer solutions, KCl/HCl was used for pH 1 and citric acid/sodium citrate combinations for pH 3, 4.5 and 6.2.
The solids were then removed by filtration and tested by XRPD analysis. The mother liquors were analyzed by HPLC to determine API solubility.
For the buffer solutions, KCl/HCl was used for pH 1 and citrate/phosphate combinations for pH 3, 4.5 and 6.6 (10 mM). The pH of the solutions was also measured prior to HPLC analysis.

[9] = Dynamic vapour sorption (DVS); format: physicochemical
Description: For dynamic vapour sorption (DVS), approximately 10-20 mg of sample was placed into a wire mesh vapour sorption balance pan and loaded into a DVS-1 dynamic vapour sorption balance by Surface Measurement Systems. The sample was subjected to a ramping profile from 20-90% relative humidity (RH) at 10% increments, maintaining the sample at each step until a stable weight had been achieved (99.5% step completion). After completion of the sorption cycle, the sample was dried using the same procedure, but all the way down to 0% RH and finally taken back to the starting point of 20% RH. The weight change during the sorption/desorption cycles were plotted, allowing for the hygroscopic nature of the sample to be determined.

[10] = 1 week stability study (XRPD and HPLC); format: physicochemical; conditions: 1 week
Description: (§2) Resulting solids were analysed by XRPD and HPLC to establish if any changes had occurred.
as §2
The resulting solids were analysed by XRPD and HPLC to establish if any changes had occurred.

[11] = 40° C./75% RH, closed (crimped) vial

## C=CC(=O)Nc1cccc(Nc2nc(Nc3ccc(N4CCN(C(C)=O)CC4)cc3OC)ncc2C(F)(F)F)c1 [Compound 1, N-(3-(2-(4-(4-acetylpiperazin-1-yl)-2-methoxyphenylamino)-5-(trifluoromethyl)pyrimidin-4-ylamino)phenyl)acrylamide]
[1]
  solid form after slurry experiment: remained as the free base Form I
[2]
  inhibition of cell proliferation in vivo: inhibit
Mutant EGFR kinase
  inhibition of mutant EGFR kinase: selective covalent, irreversible inhibition
[3]
  inhibition of cell proliferation in vitro: inhibit

## C=CC(=O)Nc1cccc(Nc2nc(Nc3ccc(N4CCN(C(C)=O)CC4)cc3OC)ncc2C(F)(F)F)c1.O=S(=O)(O)c1ccccc1.O=S(=O)(O)c1ccccc1 [bis-besylate salt]
[4]; pH 3.0 (1% SDS), early time points, tablet 1
  intrinsic dissolution value: approximately 0.36 mg/cm^2/min
[4]; pH 3.0 (1% SDS), early time points, tablet 2
  intrinsic dissolution value: ~0.38 mg/cm^2/min
[4]; pH 3.0 (1% SDS), later time points, tablet 1
  intrinsic dissolution value: 0.08 mg/cm^2/min
[4]; pH 3.0 (1% SDS), later time points, tablet 2
  intrinsic dissolution value: 0.07 mg/cm^2/min
[4]; pH 4.5 (1% SDS), early time points, tablet 1
  intrinsic dissolution value: approximately 0.61 mg/cm^2/min
[4]; pH 4.5 (1% SDS), early time points, tablet 2
  intrinsic dissolution value: approximately 0.61 mg/cm^2/min
[4]; pH 4.5 (1% SDS), later time points, tablet 1
  intrinsic dissolution value: 0.09 mg/cm^2/min
[4]; pH 4.5 (1% SDS), later time points, tablet 2
  intrinsic dissolution value: 0.08 mg/cm^2/min
[5]; Acetone:water (3%)
  Hydration study, result of slurrying: Corresponds with the input bis-
[5]; Acetone:water (10%)
  Hydration study, result of slurrying: Different from the bis-besylate input
[6]; 1 hr
  pH of the supernatant: pH 2-3
  Disproportionation study, result of slurrying (XRPD): Yellow gum present.
[6]; 24 hrs
  pH of the supernatant: pH 1-2
  Disproportionation study, result of slurrying (XRPD): Different from starting material, appears to
[6]; 48 hrs
  pH of the supernatant: pH 1-2
  Disproportionation study, result of slurrying (XRPD): Different from starting material, appears to
[7]
  Stability 40° C./75% RH (open conditions): Solid/gum present.
[8]; pH 1.0, KCl/HCl
  XRPD of excess solids: Diffractogram corresponds with the hydrated
[8]; pH 1.0, KCl/HCl buffer
  Thermodynamic Solubility: 4.93 mg/mL
[8]; pH 3.0, Citrate/Phosphate
  XRPD of excess solids: Change in diffractogram - does not correspond
  Thermodynamic Solubility: 0.24 mg/mL
[8]; pH 3.0, KHP/HCl
  XRPD of excess solids: Change in diffractogram - does not correspond
  Thermodynamic Solubility: 0.26 mg/mL
[8]; pH 4.5, Citrate/Phosphate
  XRPD of excess solids: Change in diffractogram - does not correspond
  Thermodynamic Solubility: 0.43 mg/mL
[8]; pH 4.5, KHP/NaOH
  XRPD of excess solids: Change in diffractogram - does not correspond
  Thermodynamic Solubility: 0.10 mg/mL
[8]; pH 6.6, Citrate/Phosphate
  XRPD of excess solids: Change in diffractogram - does not correspond
  Thermodynamic Solubility: 0.66 mg/mL
[8]; pH 6.6, Phosphate/NaOH
  XRPD of excess solids: Change in diffractogram - does not correspond
  Thermodynamic Solubility: 0.17 mg/mL
[9]; after DVS cycles
  post DVS XRPD analysis (polymorphic form): change in polymorphic form
[9]; between 20 and 70% RH
  water uptake (DVS): ca. 2.2%
[10]; [11]
  HPLC purity after storage: 97.35%
  XRPD after storage: No change in polymorphic form.
[10]; 40° C./75% RH, open vial
  HPLC purity after storage: 97.22%
  XRPD after storage: Change in polymorphic form,
[10]; 80° C., open vial
  HPLC purity after storage: 97.20%
  XRPD after storage: Corresponds predominantly with input
